The values that follow come from ChEMBL document CHEMBL1152806, “Discovery of a potent, selective, and orally efficacious pyrimidinooxazinyl bicyclooctaneacetic acid diacylglycerol acyltransferase-1 inhibitor” (J Med Chem, 2009).

The target in this assay is T1, Diacylglycerol O-acyltransferase 1 (Homo sapiens, UniProt O75907).
T1 sequence (O75907 whole entry): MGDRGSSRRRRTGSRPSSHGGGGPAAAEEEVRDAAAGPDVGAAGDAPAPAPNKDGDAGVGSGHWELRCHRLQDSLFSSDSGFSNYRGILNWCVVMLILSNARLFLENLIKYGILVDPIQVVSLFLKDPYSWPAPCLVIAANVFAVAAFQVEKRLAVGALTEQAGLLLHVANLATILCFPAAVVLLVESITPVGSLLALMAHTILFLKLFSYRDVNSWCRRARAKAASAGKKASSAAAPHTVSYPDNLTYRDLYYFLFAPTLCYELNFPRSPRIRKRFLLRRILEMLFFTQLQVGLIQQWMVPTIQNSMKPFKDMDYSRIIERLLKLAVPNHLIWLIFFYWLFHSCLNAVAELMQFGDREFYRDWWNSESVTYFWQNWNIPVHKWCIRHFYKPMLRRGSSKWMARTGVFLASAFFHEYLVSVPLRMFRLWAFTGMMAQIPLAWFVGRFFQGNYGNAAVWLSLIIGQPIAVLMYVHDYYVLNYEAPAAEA
Put plainly: Inhibition of human recombinant DGAT1 expressed in Sf9 cells by liquid scintillography.

Regarding `CC1(C)Oc2ncnc(N)c2N=C1c1ccc(C23CCC(CC(=O)O)(CC2)CC3)cc1`, the IC50 is 0.015 µM.

One may read the IC50 as the point on the concentration scale where inhibition reaches its midpoint.
